Data on 3 compounds can be found in patent US20220016251A1, “LYMPHATIC MEDIATED TRANSPORT-BASED TRIGLYCERIDE PRODRUG, AND PREPARATION METHOD THEREFOR” (SHENYANG PHARMACEUTICAL UNIVERSITY, priority 2019, published 2022).

What is called IC50 is the concentration that gives 50% inhibition. What is called AUC(0-t) is the area under the concentration-time curve up to a stated or last time point. As usually defined, the Cmax is the highest concentration seen after dosing. Usually Tmax stands for the time at which the peak concentration occurs. A word on the half-life: it is the time needed for the level to fall by half in the phase considered. Higher therefore signals slow decline.

A short description of data set [1]: In vivo intestinal perfusion in rats. An excerpt: The intestinal permeability of a docetaxel-triglyceride prodrug is investigated by in vivo intestinal perfusion in rats. […] In order to investigate the effect of intestinal pancreatic lipase digestion on the absorption of the prodrug, a pancreatic lipase inhibitor orlistat is administrated half an hour in advance.

For data set [2] the following is noted: mouse, in vivo.
From the text: For 5 consecutive days, normal Balb/c mice are orally administered with the docetaxel-triglyceride prodrug emulsion synthesized in Example 4, and docetaxel solution, and intravenously injected with a docetaxel solution, and a normal saline group is used as control. The gastrointestinal toxicity is then investigated.
In another data set the test system is KB cells. Kind of data set: cells. Type of data set: cell-based. The note with it: Homo sapiens. An excerpt: (§1) In order to investigate the tumor reduction-sensitive release of DTX-S-S-TG, 4T1 cells and KB cells are used as models to investigate the cytotoxicity of DTX-5C-TG, a DTX-S-S-TG emulsion and a docetaxel solution. […] Due to a reduction-sensitive dithio linking bridge, DTX-S-S-TG has higher drug release efficiency than DTX-5C-TG, which is linked by insensitive ester bonds. As a result, the cytotoxicity of DTX-S-S-TG is stronger than that of DTX-5C-TG. Meanwhile, due to the slow release of a sensitive prodrug, DTX-S-S-TG has lower cytotoxicity than the docetaxel solution.

The subject of the next data set is 4T1 cells. The experiment in a line: cells. The note with it: Mus musculus. Type of data set: cell-based.
From the text: as §1

A short description of the next data set: in vivo. The procedure: Taking SD rats as a model, a docetaxel-triglyceride prodrug emulsion and a docetaxel solution are orally administered; a plasma concentration of a parent drug is measured; and a drug-time curve is drawn and corresponding pharmacokinetic parameters are calculated respectively based on the measured concentration (Table 2). In order to calculate the absolute bioavailability, a docetaxel solution is administered intravenously, and the content of docetaxel in the plasma is measured.
In addition, in order to investigate whether the docetaxel-triglyceride prodrug is transported through the lymphatics, one hour before oral administration of the DTX-S-S-TG and the docetaxel solution, […] is administered intraperitoneally to inhibit the release of chylomicrons. The effect of lymphatic transport on the absorption of the prodrug is investigated.

The test system of a further data set is 4T1 tumor. Type of data set: in vivo. The following applies: oral, 4T1 tumor-bearing Balb/c mice. An excerpt:
It reminds us that a good pharmacodynamic result not only requires a significant pharmacokinetic result, but also that a specific release at a tumor site is very important.

Data set [3] in a line: Stability in lipoprotein lipase-containing plasma. Type of data set: in vitro ADME. The following applies: plasma added with lipoprotein lipase, after continuous incubation. How it is done:
(§2) Emulsions prepared in Example 5 are incubated in simulated gastric juice, bile-pancreatic juice simulated intestinal juice, and lipoprotein lipase-containing plasma at 37° C., respectively; and samples are taken at predetermined time points to investigate the physical stability of the prodrug emulsion and the chemical stability of the prodrug in different media.

The next data set relates to pancreatic lipase. The experiment in a line: Digestion in bile-pancreatic juice simulated intestinal juice. The note with it: 37° C. Type of data set: in vitro ADME. The procedure: as §2

In brackets after ≈: the same amount, converted by molar mass. Where two headings read alike, the source gives them in different places.

Turning to `CC(=O)O[C@@]12CO[C@@H]1C[C@H](O)[C@@]1(C)C(=O)[C@H](O)C3=C(C)[C@@H](OC(=O)[C@H](O)[C@@H](NC(=O)OC(C)(C)C)c4ccccc4)C[C@@](O)([C@@H](OC(=O)c4ccccc4)[C@H]21)C3(C)C` [DTX Solution, docetaxel], the “effect of pancreatic lipase inhibitor orlistat on absorption” value in data set [1] (rat, in vivo) is listed as “no significant effect”. Besides, the “gastrointestinal toxicity (injury to intestinal segments)” value in data set [2] (iv) was “injury to respective intestinal segments”. The “gastrointestinal toxicity (injury to intestinal segments)” value in data set [2] (po) is “slight injury to the jejunum”. For the same compound, the IC50 with KB cells (48 h, read-out: IC50 KB 48 h) was found to be 4.9 ng/mL (≈ 6.07 nM). Moreover, the half-maximal inhibitory concentration (IC50) in the data set with KB cells (72 h, read-out: IC50 KB 72 h) was determined as 1.3 ng/mL (≈ 1.61 nM). The IC50 with 4T1 cells (48 h, read-out: IC50 4T1 48 h) was determined as 16.6 ng/mL (≈ 20.5 nM). The IC50 in the data set on 4T1 cells (72 h, read-out: IC50 4T1 72 h) was 5.9 ng/mL (≈ 7.3 nM). In addition, the Fabs in “in vivo” (SD, rat, in vivo) came to 9.4%. Besides, in the data set “in vivo” (SD, rat, in vivo, po), the AUC(0-t) was determined as 0.168 ± 0.125 µg·h/mL, the concentration peaked (Cmax) at 0.021 ± 0.0068 µg/mL, the Frel is reported as 100% and the Tmax stood at 0.4 ± 0.5 h. Moreover, the half-life in the data set “in vivo” (SD, rat, in vivo, po) is 11.8 ± 8.4 h. Also, the “effect of cyclophosphamide (lymphatic suppression) on oral absorption / AUC” value in “in vivo” (rat, in vivo) is recorded as “no significant difference in AUC”. Moreover, in the data set with 4T1 tumor, the anti-tumor effect result was “almost no anti-tumor effect”.

With `CCCCCCCCCCCCCCCC(=O)OCC(COC(=O)CCCCCCCCCCCCCCC)OC(=O)C(CCC(=O)O[C@@H](C(=O)O[C@H]1C[C@@]2(O)[C@@H](OC(=O)c3ccccc3)[C@@H]3[C@]4(OC(C)=O)CO[C@@H]4C[C@H](O)[C@@]3(C)C(=O)[C@H](O)C(=C1C)C2(C)C)[C@@H](NC(=O)OC(C)(C)C)c1ccccc1)OC(=O)C(C)(C)C` (some centres unmarked) [DTX-5C(Piv)-TG, Docetaxel-C5(Piv)-Triglyceride Prodrug], the “permeability coefficient Ka, increase compared with docetaxel solution” value in data set [1] (in vivo intestinal perfusion in rats) stood at 1.15 times. The “release of docetaxel parent drug in plasma” value in data set [3] is on record as “hardly releases the docetaxel parent drug”. Moreover, the blood concentration entry in “in vivo” (oral, SD rats) is on record as “lower than a detection limit”. Besides, the “degradation into docetaxel-monoglyceride prodrugs in intestinal juice” value in the data set on pancreatic lipase is on record as “relatively slow degradation rate”.

As to “Docetaxel-C5(Et)-Triglyceride Prodrug [DTX-5C(Et)-TG]”, the “release of docetaxel parent drug in plasma” value in data set [3] was “release the drug slowly”. Further, the “oral bioavailability improved versus docetaxel” value in the data set “in vivo” (rat, in vivo, po) was 1.05-4.71 times. Further, in the data set on 4T1 tumor, the anti-tumor effect result is reported as “certain anti-tumor effect”. The “degradation into docetaxel-monoglyceride prodrugs in intestinal juice” value with pancreatic lipase is “relatively slow degradation rate”.
